{"source": "patent US20250242086A1", "about": "“THERAPEUTIC BIOMATERIAL THAT ATTENUATES THE FOREIGN BODY RESPONSE” (The Regents of the University of Colorado, a body corporate, priority 2022, published 2025)", "key": {"[1]": {"test_system": "J774A.1 macrophage cell line", "test": "Caspase-Glo 8 caspase activity assay in J774A.1 macrophages with FasL with or without small molecule inhibitor", "assay_type": "cell-based", "protocol": "FIG. 11 provides two illustrations depicting in vitro assessment of cell behavior. (A) In Vitro Experimental Protocol: J774A.1 macrophage cell line was incubated overnight at 20,000 cells/well and treated with lipopolysaccharide (LPS) for 4 hours or 3days. Exogenous FasL was then added to initiate the extrinsic apoptotic pathway for 6 hours before caspase activity (Caspase-Glo3/7) and metabolic activity (alamarBlue) assays were performed to study the differences in cell behavior after exposure to each stimulant. (B) In Vitro Experimental Protocol for Small Molecule Testing. J774A. 1 macrophage cell line was incubated overnight at 20,000 cells/well and cultured […] for 3 days. Exogenous FasL was then added to initiate the extrinsic apoptotic pathway with or without a small molecule inhibitor for 6 hours before a caspase activity (Caspase-Glo8) assay was performed to study the differences in cell behavior after exposure. […] J774A.1 macrophage cell line was incubated overnight at 20,000 cells/well and cultured in complete media for 3 days. Exogenous FasL was then added to initiate the extrinsic apoptotic pathway with or without a small molecule inhibitor for 6 hours before a caspase activity (Caspase-Glo 8) assay was performed to study the differences in cell behavior after exposure. Lastly, tests were performed utilizing a small molecule inhibitor (YM155) of CFLIP. […]"}, "macrophages": {"test_system": "macrophages", "details": "in vitro; cited from earlier work"}, "cFLIP in cancer cells": {"test_system": "cFLIP in cancer cells", "details": "cancer cells versus non-cancerous cells; cited from earlier work"}}, "data": [{"smiles": "COCCn1c2c([n+](Cc3cnccn3)c1C)C(=O)c1ccccc1C2=O", "note": "[YM155]", "values": [{"measurement": "fold change in caspase 8 activity relative to untreated control", "setting": "[1]; 100 ng/mL small molecule, FasL 6 hours, J774A.1 cells cultured 3 days, N=3", "result": "about 23 fold"}, {"measurement": "effect on caspase 8 activity (qualitative)", "setting": "[1]; small molecule exposure, J774A.1 cells, FasL", "result": "increased caspase 8 activity"}, {"measurement": "effect on anti-apoptotic programming in macrophages", "setting": "macrophages", "result": "reversed anti-apoptotic programming in macrophages in vitro"}, {"measurement": "cFLIP inhibition in cancer cells and induction of their death", "setting": "cFLIP in cancer cells", "result": "inhibited cFLIP in cancer cells and induced their death without affecting non-cancerous cells"}]}]}
